Values of other authors, collected in US20070292407A1, “Methods of treatment for meconium aspiration syndrome” (The Board of Trustees Operating Michigan State University, priority 2005, published 2007).

Settings: in vitro; Burke et al., J Pediatr Surg 2002

In the case of `CC(=O)N[C@@H](CS)C(=O)O` [N-Acetylcysteine, N-acetyl-L-cysteine], the “reduction of meconium viscosity” value is given as “significant reduction of meconium viscosity”.
